Bounds are passed on as bounds.

The experiment deals with T1, Human eIF4E (Homo sapiens, UniProt P06730).
T1 construct: Human eIF4E (aa 28-217) with a C-terminal His-tag; made in house
T1 sequence (P06730 28-217): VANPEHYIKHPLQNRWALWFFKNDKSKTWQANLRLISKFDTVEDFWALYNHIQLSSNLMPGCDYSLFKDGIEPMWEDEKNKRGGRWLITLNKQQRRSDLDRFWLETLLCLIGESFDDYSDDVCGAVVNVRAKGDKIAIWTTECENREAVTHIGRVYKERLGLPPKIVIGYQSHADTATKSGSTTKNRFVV
Description: Human eIF4E/4G2 binding assay (TR-FRET). The conditions noted are these: eIF4E (aa 28-217) with biotin labeled 4G2 peptide. The procedure: Human eIF4E (aa 28-217) with a C-terminal His-tag was expressed in E. coli in inclusion bodies. The protein was solubilized with 8 M urea and purified under denaturing conditions using nickel-charged HisTrap HP columns (GE Healthcare). The purified protein was then refolded by diluting in 20 mM Hepes pH 7.0, 0.5 M NaCl, 1 mM DTT, 1 mM EDTA, 0.5 M arginine plus 6 M urea, and then dialyzing overnight into the same buffer without the urea. The protein was further dialyzed into 20 mM Hepes, pH 6.5, 50 mM NaCl, 1 mM EDTA, 1 mM DTT, and concentrated using Hitrap SP sepharose FF columns (GE Healthcare). The concentrated protein was dialyzed into 20 mM Hepes, pH 7.0, 0.5M NaCl, 5 mM DTT and 10% glycerol, and stored at −80° C. until use.
Test compounds (3.43 mM stock in DMSO) were diluted 2-fold in series in DMSO (10 concentration points). Compound solutions (1.2 μl/well) were added into black 384-well polypropylene microplates (Matrix, Thermal Scientific). Twenty-two microliters per well of Assay Buffer (50 mM NaPi, pH 6.5, 50 mM KCl, 1 mM DTT and 0.5 mg/ml gamma globulin) and eight microliters per well of 82.5 nM purified eIF4E in Assay Buffer were added. The samples were incubated at room temperature (20-23° C.) for 15 min. Biotin labeled 4G2 peptide (Ac-Lys-Gln-Tyr-Asp-Arg-Glu-Phe-Leu-Leu-Asp-Phe-Gln-Phe-Met-Pro-Lys(Aha-Bio)-NH2, 1.75 μM stock in DMSO) was diluted to 0.14 μM in Assay Buffer (without DTT) and 5 μl/well was added. The samples were incubated at room temperature for 15 min. Five microliters per well of 6.4 nM Eu-streptavidin (Eu-SA, Perkin Elmer) and 80 nM Allophycocyanin (APC)-anti His antibody (Columbia Biosciences) in Assay Buffer (without DTT) were then added and the samples were incubated at room temperature for 20 min.
Assay signals were monitored by reading excitation at 340 nm and emission fluorescence at 615 nm and 665 nm on an Envision reader (Perkin Elmer). Normalized TR-FRET (time-resolved fluorescence resonance energy transfer) assay signal (Rn) was calculated by the formula: Rn═[(A−Ba−C×D)/(D−Bd)]×(Dc−Bd) • Where A is the fluorescence intensity of the sample at 665 nm, • D is the fluorescence intensity of the sample at 615 nm, • Ba and Bd are plate backgrounds at 665 nm and 615 nm, respectively, • Dc is the fluorescence intensity of 0.78 nM Eu-SA in the assay buffer at 615 nm • The cross-talk factor (C) is determined by the following formula: C=(Ac−Ba)/(Dc−Bd) • Where Ac is the fluorescence intensity of 0.78 nM Eu-SA in the assay buffer at 665 nm.
IC50 values were calculated using xLFit program (IDBS).
(Time-resolved FRET reads energy transfer from a long-lived donor to a nearby acceptor.)
Regarding `CC(CC(=O)O)Nc1nc(-c2ccc(Oc3ccccc3)cc2)c(-c2ccccc2)s1` (stereo not drawn) [Compound I-172], the IC50 is 5 to 25 µM. For `CCCC(CNc1nc(-c2ccc(-c3ccc(F)cc3)cc2)c(-c2cncnc2)s1)C(=O)O` (stereo not drawn) [Compound I-90] the value was more than 25 µM; for `O=C(O)C1CCCN(c2nc(-c3ccc(Oc4ccccc4)cc3)c(-c3ccccc3)s2)C1` (stereo not drawn) [Compound I-182], less than 5 µM. The figure for `CC(C)(CNc1nc(-c2ccc(-c3ccc(F)cc3)cc2)c(-c2cccc3[nH]ccc23)s1)C(=O)O` [Compound I-75] is 5 to 25 µM. The figure for `O=C(O)C1CN(c2nc(-c3ccc(Oc4ccccc4)cc3)c(-c3cncnc3)s2)CCO1` (stereo not drawn) [Compound I-214] is more than 25 µM. The molecule `O=C(O)C1CC(CNc2nc(-c3ccc(-c4ccc(F)cc4)cc3)c(-c3cncnc3)s2)C1` (stereo not drawn) [Compound I-129] gave an IC50 of more than 25 µM. Molecule `CC(CNc1nc(-c2ccc(-c3ccc(F)cc3)cc2)cs1)C(=O)O` (stereo not drawn) [Compound I-99] gave an IC50 of more than 25 µM. In turn, `O=C(O)C1CCN(c2nc(-c3ccc(-c4ccc(F)cc4)cc3)c(-c3cccnc3)s2)CC1` [Compound I-138] yielded an IC50 of 5 to 25 µM. For `Cc1nc(N2CCCC(C(=O)O)C2)sc1-c1ccc(-c2ccc(F)cc2)cc1` (stereo not drawn) [Compound I-238] the value was 5 to 25 µM. The figure for `O=C(O)C1CCCN(c2nc(-c3ccc(-c4cnco4)cc3)c(-c3cccnc3)s2)C1` (stereo not drawn) [Compound I-33] is more than 25 µM; for `CC(CNc1nc(-c2ccc(-c3ccc(F)cc3)cc2)c(-c2cccc3[nH]ccc23)s1)C(=O)O` (stereo not drawn) [Compound I-104] it is 5 to 25 µM. For the molecule `Cc1sc(N2CCOC(C(=O)O)C2)nc1-c1ccc(-c2ccc(F)cc2)cc1` (stereo not drawn) [Compound I-236, 4-(4-(4′-fluorobiphenyl-4-yl)-5-methylthiazol-2-yl) morpholine-2-carboxylic acid], the concentration for half-maximal inhibition (IC50) fell in the range of 5 to 25 µM.

`CC(CC(=O)O)Nc1nc(-c2ccc(-c3cnco3)cc2)c(-c2cncnc2)s1` (stereo not drawn) [Compound I-23] yielded an IC50 of more than 25 µM. `CC1(C(=O)O)CCCN(c2nc(-c3ccc(-c4ccc(F)cc4)cc3)c(-c3ccccc3)s2)C1` (stereo not drawn) [Compound I-144] yielded an IC50 of less than 5 µM. For `CCCC(CNc1nc(-c2ccc(-c3ccc(F)cc3)cc2)cs1)C(=O)O` (stereo not drawn) [Compound I-87] the value was more than 25 µM; for `CC(CNc1nc(-c2ccc(-c3cnco3)cc2)c(-c2cccnc2)s1)C(=O)O` (stereo not drawn) [Compound I-29], more than 25 µM; for `CC(C)C(CC(=O)O)Nc1nc(-c2ccc(-c3ccc(F)cc3)cc2)cs1` (stereo not drawn) [Compound I-64], 5 to 25 µM. The figure for `O=C(O)C1CCN(c2nc(-c3ccc(-c4ccc(F)cc4)cc3)c(-c3cccc4[nH]ccc34)s2)C1` (stereo not drawn) [Compound I-119] is 5 to 25 µM; for `O=C(O)[C@H]1CCCN(c2nc(-c3ccc(Oc4ccccc4)cc3)c(-c3ccccc3)s2)C1` [Compound I-228] it is less than 5 µM; for `O=C(O)C1CCCN(c2nc(-c3ccc(-c4ccc(F)cc4)cc3)c(-c3cccc4[nH]ccc34)s2)C1` (stereo not drawn) [Compound I-109] it is less than 5 µM. The figure for `O=C(O)C1CCN(c2nc(-c3ccc(-c4ccc(F)cc4)cc3)c(-c3cncnc3)s2)CC1` [Compound I-137] is more than 25 µM. For the molecule `CC1(C(=O)O)CN(c2nc(-c3ccc(-c4cnco4)cc3)c(-c3cncnc3)s2)C1` [Compound I-14], the IC50 was more than 25 µM. The figure for `O=C(O)C1CN(c2nc(-c3ccc(-c4cnco4)cc3)c(-c3cccc4[nH]ccc34)s2)C1` [Compound I-12] is more than 25 µM; for `O=C(O)C1CN(c2nc(-c3ccc(-c4cnco4)cc3)c(-c3ccccc3)s2)CCO1` (stereo not drawn) [Compound I-56] it is more than 25 µM; for `O=C(O)C1CCCN(c2nc(-c3ccc(-c4ccc(F)cc4)cc3)cs2)C1` (stereo not drawn) [Compound I-105] it is 5 to 25 µM. For `O=C(O)C1CN(c2nc(-c3ccc(Oc4ccccc4)cc3)c(-c3cccc4[nH]ccc34)s2)C1` [Compound I-161] the value was 5 to 25 µM; for `O=C(O)C1CCN(c2nc(-c3ccc(-c4ccc(F)cc4)cc3)c(-c3cccnc3)s2)C1` (stereo not drawn) [Compound I-118], more than 25 µM. The figure for `CC(CNc1nc(-c2ccc(-c3ccc(F)cc3)cc2)c(C(F)(F)F)s1)C(=O)O` (stereo not drawn) [Compound I-229] is less than 5 µM; for `CC1(C(=O)O)CN(c2nc(-c3ccc(Oc4ccccc4)cc3)c(-c3ccccc3)s2)C1` [Compound I-163] it is 5 to 25 µM. `CC(CNc1nc(-c2ccc(Oc3ccccc3)cc2)c(-c2cccc3[nH]ccc23)s1)C(=O)O` (stereo not drawn) [Compound I-180] registered an IC50 of more than 25 µM. The figure for `O=C(O)CC1CCCN1c1nc(-c2ccc(Oc3ccccc3)cc2)c(-c2cccnc2)s1` (stereo not drawn) [Compound I-188] is more than 25 µM; for `O=C(O)C1(CNc2nc(-c3ccc(-c4cnco4)cc3)c(-c3ccccc3)s2)CC1` [Compound I-44] it is more than 25 µM; for `CC(CNc1nc(-c2ccc(Oc3ccccc3)cc2)c(-c2cccnc2)s1)C(=O)O` (stereo not drawn) [Compound I-179] it is more than 25 µM.

Take `CC(C)(CNc1nc(-c2ccc(-c3cnco3)cc2)c(-c2cncnc2)s1)C(=O)O` [Compound I-6]: the IC50 is more than 25 µM. For `CC(C)(CNc1nc(-c2ccc(-c3ccc(F)cc3)cc2)c(Br)s1)C(=O)O` [Compound I-71] the value was 5 to 25 µM; for `O=C(O)C1CCN(c2nc(-c3ccc(-c4cnco4)cc3)c(-c3cccnc3)s2)CC1` [Compound I-54], more than 25 µM.

In the case of `CC(CC(=O)O)Nc1nc(-c2ccc(Oc3ccccc3)cc2)c(-c2cccc3[nH]ccc23)s1` (stereo not drawn) [Compound I-175], the IC50 is more than 25 µM. For `O=C(O)C1(CNc2nc(-c3ccc(-c4ccc(F)cc4)cc3)c(Br)s2)CC1` [Compound I-121] the value was 5 to 25 µM; for `CCCC(CNc1nc(-c2ccc(Oc3ccccc3)cc2)c(-c2cccnc2)s1)C(=O)O` (stereo not drawn) [Compound I-170], more than 25 µM; for `Cc1sc(NCC(C)C(=O)O)nc1-c1ccc(-c2ccc(F)cc2)cc1` (stereo not drawn) [Compound I-230], 5 to 25 µM. Regarding `CC(C)[C@H](CC(=O)O)Nc1nc(-c2ccc(-c3ccc(F)cc3)cc2)c(Br)s1` [Compound I-222], the 50% inhibitory concentration (IC50) is less than 5 µM.

In turn, `O=C(O)C1CCCN(c2nc(-c3ccc(Oc4ccccc4)cc3)c(-c3cccnc3)s2)C1` (stereo not drawn) [Compound I-184] returned an IC50 of more than 25 µM. The figure for `O=C(O)C1CN(c2nc(-c3ccc(-c4ccc(F)cc4)cc3)c(-c3ccccc3)s2)C1` [Compound I-77] is 5 to 25 µM; for `O=C(O)C1CCCN(c2nc(-c3ccc(-c4ccc(F)cc4)cc3)c(C(F)(F)F)s2)C1` (stereo not drawn) [Compound I-233] it is less than 5 µM; for `O=C(O)C1CN(c2nc(-c3ccc(-c4cnco4)cc3)c(-c3cncnc3)s2)CCO1` (stereo not drawn) [Compound I-57] it is more than 25 µM. The figure for `O=C(O)C1CCCN(c2nc(-c3ccc(-c4ccc(F)cc4)cc3)c(-c3cncnc3)s2)C1` (stereo not drawn) [Compound I-107] is more than 25 µM; for `CC(CNc1nc(-c2ccc(-c3cnco3)cc2)c(-c2cccc3[nH]ccc23)s1)C(=O)O` (stereo not drawn) [Compound I-30] it is more than 25 µM; for `CC1(C(=O)O)CN(c2nc(-c3ccc(Oc4ccccc4)cc3)cs2)C1` [Compound I-162] it is more than 25 µM.

On to `Cc1nc(N2CCOC(C(=O)O)C2)sc1-c1ccc(-c2ccc(F)cc2)cc1` (stereo not drawn) [Compound I-237, 4-(5-(4′-fluorobiphenyl-4-yl)-4-methylthiazol-2-yl) morpholine-2-carboxylic acid], for which the half-maximal inhibitory concentration (IC50) fell in the range of 5 to 25 µM. For `CC(CC(=O)O)Nc1nc(-c2ccc(-c3ccc(F)cc3)cc2)c(-c2cccnc2)s1` (stereo not drawn) [Compound I-97] the value was more than 25 µM. In the case of `O=C(O)C1CCN(c2nc(-c3ccc(Oc4ccccc4)cc3)c(-c3cncnc3)s2)CC1` [Compound I-210], the half-maximal inhibitory concentration (IC50) is more than 25 µM. Turning to `O=C(O)C1(CNc2nc(-c3ccc(-c4cnco4)cc3)c(-c3cncnc3)s2)CC1` [Compound I-45], the IC50 is more than 25 µM. Turning to `CC1(C(=O)O)CN(c2nc(-c3ccc(-c4ccc(F)cc4)cc3)c(-c3cccc4[nH]ccc34)s2)C1` [Compound I-86], the IC50 fell in the range of 5 to 25 µM.

`O=C(O)C1CCN(c2nc(-c3ccc(Oc4ccccc4)cc3)c(-c3cncnc3)s2)C1` (stereo not drawn) [Compound I-192]: the IC50 was more than 25 µM.

One may read the IC50 as the concentration that inhibits the measured activity by half. A higher IC50 goes with weaker potency in that assay.

Source of the values: patent US12030875B2, “EIF4E inhibitors and uses thereof” (PIC Therapeutics, Inc., priority 2018, dated 2024).
